Measured values taken from patent publication US8822517B2, “Arylosulfonamides for the treatment of CNS diseases” (Adamed SP. Z O.O., priority 2010, dated 2014).
Like-named read-outs stand apart in the source and are kept apart here.

Assays:
[1] = target: T1, serotoninergic receptor 5-HT2C (Homo sapiens, UniProt P28335); assay: Binding assay 5-HT2C (h), [3H]mesulergine, HEK-293 cells; conditions: read-out: 5-HT2C [%]
T1 construct: expressed in transfected cells; host or cells: HEK-293 cells
T1 sequence (P28335 33-458): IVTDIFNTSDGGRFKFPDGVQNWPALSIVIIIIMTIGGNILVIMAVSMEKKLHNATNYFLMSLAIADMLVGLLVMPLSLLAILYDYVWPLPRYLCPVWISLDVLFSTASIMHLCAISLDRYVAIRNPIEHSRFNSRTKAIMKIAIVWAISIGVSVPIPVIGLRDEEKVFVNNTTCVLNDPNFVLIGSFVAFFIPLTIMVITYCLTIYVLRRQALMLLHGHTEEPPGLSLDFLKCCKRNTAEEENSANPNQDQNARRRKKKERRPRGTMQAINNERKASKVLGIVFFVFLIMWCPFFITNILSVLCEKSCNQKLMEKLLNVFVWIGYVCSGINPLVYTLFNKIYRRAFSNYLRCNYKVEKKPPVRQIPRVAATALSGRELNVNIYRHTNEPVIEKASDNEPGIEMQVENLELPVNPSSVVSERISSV
Method in brief: (§1)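 Tested at 1×10^−6 M. Specific binding: total minus binding remaining with excess cold ligand. Detection: scintillation counting.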

dopaminergic D2 receptor = dopaminergic D2 receptor (Homo sapiens, UniProt P14416); assay: Cellular functional assay, dopaminergic D2 receptor (agonism/antagonism); assay type: cell-based
Procedure: (§2) The compounds were tested at the concentration of 1×10^−6M.
(§3) In the Tables ag refers to agonism, and antag to antagonism).

[2] = target: serotoninergic 5-HT2A receptor (Homo sapiens, UniProt P28223); assay: Cellular functional assay, serotoninergic 5-HT2A receptor (agonism/antagonism); assay type: cell-based; conditions: for activation at 1 µM: read-out: 5-HT2A -ag [%]; for inhibition at 1 µM: read-out: 5-HT2A -antag [%]
Method in brief: (§4)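 Human receptors tested in cell-based functional format for both agonist and antagonist modes. Single compound concentration of 1×10^−6M.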

[3] = target: serotoninergic 5-HT6 receptor (Homo sapiens, UniProt P50406); assay: Cellular functional assay, serotoninergic 5-HT6 receptor (agonism/antagonism); assay type: cell-based; conditions: for activation at 1 µM: read-out: 5-HT6-ag [%]; for inhibition at 1 µM: read-out: 5-HT6-antag. [%]
Procedure: as §2, §3

[4] = target: T2, serotonine transporter (SERT) receptor (Homo sapiens, UniProt P31645); assay: Binding assay SERT (h), [3H]imipramine, CHO cells; conditions: read-out: SERT [%]
T2 construct: expressed in transfected cells; host or cells: CHO cells
Method in brief: as §1

[5] = target: T3, serotoninergic 5-HT7 receptor (Homo sapiens, UniProt P34969); assay: Binding assay 5-HT7 (h), [3H]LSD, CHO cells; parameters: expressed in transfected cells; host or cells: CHO cells; conditions: read-out: 5-HT7
Method in brief: as §1

adrenergic α1A receptor = target: T4, adrenergic α1A receptor (Homo sapiens, UniProt P35348); assay: Cellular functional assay, adrenergic α1A receptor (agonism/antagonism); assay type: cell-based; conditions: for activation at 1 µM: read-out: α1A -ag [%]; for inhibition at 1 µM: read-out: α1A -antag. [%]
T4 sequence (P35348 1-466): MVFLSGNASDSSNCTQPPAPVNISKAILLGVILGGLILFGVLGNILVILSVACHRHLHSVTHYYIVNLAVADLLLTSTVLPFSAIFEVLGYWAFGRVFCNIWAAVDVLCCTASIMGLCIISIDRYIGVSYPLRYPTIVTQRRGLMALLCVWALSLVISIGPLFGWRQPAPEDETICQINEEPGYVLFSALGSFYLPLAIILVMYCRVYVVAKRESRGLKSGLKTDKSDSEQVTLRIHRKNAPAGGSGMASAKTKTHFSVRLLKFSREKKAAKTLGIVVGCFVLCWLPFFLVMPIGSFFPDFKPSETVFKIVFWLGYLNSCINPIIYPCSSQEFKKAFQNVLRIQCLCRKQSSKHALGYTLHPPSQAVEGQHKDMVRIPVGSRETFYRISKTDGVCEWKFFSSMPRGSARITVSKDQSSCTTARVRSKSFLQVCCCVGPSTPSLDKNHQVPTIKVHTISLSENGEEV
Method in brief: as §4

[6] = target: T5, serotoninergic 5-HT1A receptor (Homo sapiens, UniProt P08908); assay: Cellular functional assay, serotoninergic 5-HT1A receptor (agonism/antagonism); assay type: cell-based
T5 sequence (P08908 1-422): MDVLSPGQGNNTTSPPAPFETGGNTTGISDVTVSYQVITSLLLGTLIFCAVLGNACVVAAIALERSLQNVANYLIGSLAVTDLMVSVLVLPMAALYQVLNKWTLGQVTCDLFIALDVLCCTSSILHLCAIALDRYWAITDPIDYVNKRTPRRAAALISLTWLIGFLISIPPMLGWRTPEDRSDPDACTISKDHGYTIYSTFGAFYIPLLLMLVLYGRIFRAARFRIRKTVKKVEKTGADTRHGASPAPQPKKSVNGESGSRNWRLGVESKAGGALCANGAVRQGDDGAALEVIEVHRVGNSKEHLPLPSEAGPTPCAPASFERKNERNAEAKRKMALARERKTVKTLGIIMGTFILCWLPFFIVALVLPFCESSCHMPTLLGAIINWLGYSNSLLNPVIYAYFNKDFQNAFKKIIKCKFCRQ
Procedure: as §2, §3

dopaminergic D3 receptor = dopaminergic D3 receptor (Homo sapiens, UniProt P35462); assay: Cellular functional assay, dopaminergic D3 receptor (agonism/antagonism); assay type: cell-based
Procedure: as §2, §3

[7] = target: T3, serotoninergic 5-HT7 receptor; assay: Cellular functional assay, serotoninergic 5-HT7 receptor (agonism/antagonism); assay type: cell-based; conditions: for activation at 1 µM: read-out: 5-HT7-ag [%]; for inhibition at 1 µM: read-out: 5-HT7-antag. [%]
Procedure: as §2, §3

[8] = HEK293; agonist effect, percent of control specific agonist response (3 μM dopamine for control); 1×10^−6 M; D2S (h), HEK-293 cells; read-out: D2-ag [%]
[9] = HEK293; read-out: D2-antag. [%]
[10] = agonist effect, percent of control specific agonist response, compounds tested at 1×10^−6M
[11] = CHO; read-out: 5-HT1A-antag. [%]
[12] = agonist effect, percent of control specific agonist response (100 nM 8-OH-DPAT for control); 1×10^−6 M; 5-HT1A (h), CHO cells; read-out: 5-HT1A-ag [%]
[13] = agonist effect, percent of control specific agonist response (300 nM dopamine for control); 1×10^−6 M; D3 (h), CHO cells; read-out: D3-ag [%]

T3 sequence (P34969 whole entry): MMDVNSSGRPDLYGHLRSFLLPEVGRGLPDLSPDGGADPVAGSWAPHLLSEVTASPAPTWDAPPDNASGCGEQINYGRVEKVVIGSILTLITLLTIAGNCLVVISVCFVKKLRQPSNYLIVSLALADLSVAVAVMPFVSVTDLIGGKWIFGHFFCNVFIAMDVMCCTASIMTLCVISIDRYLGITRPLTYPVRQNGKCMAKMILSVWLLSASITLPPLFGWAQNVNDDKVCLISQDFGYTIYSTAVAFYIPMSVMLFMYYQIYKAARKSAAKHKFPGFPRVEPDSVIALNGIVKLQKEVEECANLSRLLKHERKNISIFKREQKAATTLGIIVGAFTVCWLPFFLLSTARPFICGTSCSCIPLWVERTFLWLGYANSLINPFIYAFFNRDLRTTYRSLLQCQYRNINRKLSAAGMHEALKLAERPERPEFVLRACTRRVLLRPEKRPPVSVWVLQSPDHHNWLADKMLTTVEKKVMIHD
T2 sequence (P31645 whole entry): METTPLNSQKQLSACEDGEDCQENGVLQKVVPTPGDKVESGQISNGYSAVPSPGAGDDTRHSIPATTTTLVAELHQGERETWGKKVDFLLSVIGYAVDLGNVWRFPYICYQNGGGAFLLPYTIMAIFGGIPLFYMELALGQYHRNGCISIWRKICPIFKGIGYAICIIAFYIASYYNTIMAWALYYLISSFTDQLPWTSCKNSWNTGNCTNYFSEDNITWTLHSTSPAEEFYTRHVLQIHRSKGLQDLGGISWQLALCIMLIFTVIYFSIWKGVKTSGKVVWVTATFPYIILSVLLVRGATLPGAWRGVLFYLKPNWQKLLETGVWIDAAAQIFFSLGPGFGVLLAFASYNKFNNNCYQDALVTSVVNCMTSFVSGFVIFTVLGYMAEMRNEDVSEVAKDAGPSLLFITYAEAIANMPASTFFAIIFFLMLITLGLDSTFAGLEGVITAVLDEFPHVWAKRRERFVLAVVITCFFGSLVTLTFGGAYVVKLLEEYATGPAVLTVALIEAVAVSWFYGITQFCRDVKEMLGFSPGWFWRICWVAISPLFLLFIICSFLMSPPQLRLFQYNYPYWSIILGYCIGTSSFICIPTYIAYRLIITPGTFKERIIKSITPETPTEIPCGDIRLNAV
Chain of dopaminergic D2 receptor (P14416 whole entry): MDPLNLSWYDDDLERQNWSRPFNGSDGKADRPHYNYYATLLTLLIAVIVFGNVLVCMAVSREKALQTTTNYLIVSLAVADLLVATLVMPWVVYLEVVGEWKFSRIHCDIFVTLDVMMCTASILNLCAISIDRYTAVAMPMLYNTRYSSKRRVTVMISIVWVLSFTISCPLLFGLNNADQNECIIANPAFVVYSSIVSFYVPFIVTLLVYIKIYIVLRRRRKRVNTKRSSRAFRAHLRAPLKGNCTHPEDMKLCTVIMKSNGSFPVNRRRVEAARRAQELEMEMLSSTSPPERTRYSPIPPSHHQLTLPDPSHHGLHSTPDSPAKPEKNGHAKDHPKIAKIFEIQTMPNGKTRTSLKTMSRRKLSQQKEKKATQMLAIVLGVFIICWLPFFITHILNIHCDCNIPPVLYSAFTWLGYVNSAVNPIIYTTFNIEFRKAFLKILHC
Chain of serotoninergic 5-HT6 receptor (P50406 whole entry): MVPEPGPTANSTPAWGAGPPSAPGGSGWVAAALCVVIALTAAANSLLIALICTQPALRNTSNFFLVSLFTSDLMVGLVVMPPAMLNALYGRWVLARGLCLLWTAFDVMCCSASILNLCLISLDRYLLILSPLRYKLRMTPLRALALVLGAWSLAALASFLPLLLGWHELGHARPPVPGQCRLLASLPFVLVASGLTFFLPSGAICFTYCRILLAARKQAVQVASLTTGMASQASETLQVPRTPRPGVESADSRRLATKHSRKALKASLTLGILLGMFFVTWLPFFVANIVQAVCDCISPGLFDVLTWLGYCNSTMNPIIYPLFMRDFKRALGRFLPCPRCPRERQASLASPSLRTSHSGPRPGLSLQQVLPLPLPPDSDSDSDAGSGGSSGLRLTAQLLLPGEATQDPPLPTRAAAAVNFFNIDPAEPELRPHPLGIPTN
Chain of dopaminergic D3 receptor (P35462 whole entry): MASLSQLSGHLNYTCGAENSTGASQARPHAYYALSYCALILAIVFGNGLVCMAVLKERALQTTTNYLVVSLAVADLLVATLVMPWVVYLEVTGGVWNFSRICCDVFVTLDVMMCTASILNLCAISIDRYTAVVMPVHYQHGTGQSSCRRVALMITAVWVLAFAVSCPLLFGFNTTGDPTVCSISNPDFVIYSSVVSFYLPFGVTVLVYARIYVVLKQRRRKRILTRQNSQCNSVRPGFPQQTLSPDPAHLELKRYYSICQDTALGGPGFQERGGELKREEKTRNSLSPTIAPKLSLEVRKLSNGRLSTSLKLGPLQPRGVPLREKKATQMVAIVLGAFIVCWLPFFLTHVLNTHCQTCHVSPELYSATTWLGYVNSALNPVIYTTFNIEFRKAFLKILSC
Chain of serotoninergic 5-HT2A receptor (P28223 whole entry): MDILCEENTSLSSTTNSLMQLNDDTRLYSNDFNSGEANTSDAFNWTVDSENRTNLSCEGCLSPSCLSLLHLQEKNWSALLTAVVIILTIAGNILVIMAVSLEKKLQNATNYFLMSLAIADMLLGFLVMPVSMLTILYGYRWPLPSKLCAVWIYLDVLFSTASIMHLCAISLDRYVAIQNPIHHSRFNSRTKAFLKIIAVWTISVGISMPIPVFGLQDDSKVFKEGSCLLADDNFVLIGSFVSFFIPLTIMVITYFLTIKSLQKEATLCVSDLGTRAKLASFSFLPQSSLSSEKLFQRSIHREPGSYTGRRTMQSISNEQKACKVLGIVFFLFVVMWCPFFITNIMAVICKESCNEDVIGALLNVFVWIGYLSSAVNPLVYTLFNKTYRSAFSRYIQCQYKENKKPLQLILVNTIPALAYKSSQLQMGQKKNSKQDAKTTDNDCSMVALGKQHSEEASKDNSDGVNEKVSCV

SMILES	inhibition at 1 µM [1]	activation at 1 µM (dopaminergic D2 receptor; [8])	inhibition at 1 µM (dopaminergic D2 receptor; [9])	activation at 1 µM [2]	inhibition at 1 µM [2]	activation at 1 µM [3, 10]	inhibition at 1 µM [3]	inhibition at 1 µM [4]	inhibition at 1 µM [5]	activation at 1 µM (adrenergic α1A receptor; [10])	inhibition at 1 µM (adrenergic α1A receptor)	inhibition at 1 µM [6, 11]	activation at 1 µM [6, 12]	inhibition at 1 µM (dopaminergic D3 receptor; CHO; read-out: D3-antag. [%])	activation at 1 µM (dopaminergic D3 receptor; [13])	activation at 1 µM [7, 10]	inhibition at 1 µM [7]	further results
O=S(=O)(NCCCCN1CCN(c2nsc3ccccc23)CC1)c1cc2ccccc2s1 [Compound 239, N-[4-[4-(1,2-Benzothiazol-3-yl)piperazin-1-yl]butyl]benzothiophene-2-sulphonamide]	88%	13%	84%	-2%	94%	0%	70%	64%	98%	-1%	100%	58%	7%	84%	6%	-2%	81%	–
O=c1[nH]c2ccc(S(=O)(=O)NCCCN3CCN(c4nsc5ccccc45)CC3)cc2o1 [Compound 8, N-(3-(4-(1,2-Benzothiazol-3-yl)piperazin-1-yl)propyl)-2-oxo-3H-1,3-benzoxazole-6-sulphonamide]	90%	7%	85%	-2%	99%	-1%	64%	63%	97%	0%	100%	81%	14%	73%	-24%	-1%	82%	–
O=S(=O)(NCCCCN1CCN(c2nsc3ccccc23)CC1)c1ccc2cc(Cl)ccc2c1 [Compound 61, N-[4-[4-(1,2-Benzothiazol-3-yl)piperazin-1-yl]butyl]-6-chloro-naphthalene-2-sulphonamide]	95%	4%	77%	0%	97%	-2%	72%	55%	100%	0%	100%	20%	75%	45%	4%	-1%	78%	–
O=S(=O)(NCCCCN1CCN(c2nsc3ccccc23)CC1)c1ccc2ccccc2c1 [Compound 2, N-(4-(4-(1,2-Benzothiazol-3-yl)piperazin-1-yl)butyl)naphthalene-2-sulphonamide]	89%	–	–	2%	102%	–	28%	69%	97%	–	100%	–	–	–	–	–	80%	activation at 1 µM (dopaminergic D2 receptor; HEK293, read-out: D2-ag [%]): 2%; inhibition at 1 µM (dopaminergic D2 receptor; HEK293, read-out: D2-antag. [%]): 97%; activation at 1 µM [3]: 2%; activation at 1 µM (adrenergic α1A receptor): 0%; activation at 1 µM ([6]; CHO, read-out: 5-HT1A-ag [%]): 47%; inhibition at 1 µM ([6]; CHO, read-out: 5-HT1A-antag. [%]): 18%; activation at 1 µM (dopaminergic D3 receptor; CHO, read-out: D3-ag [%]): -15%; inhibition at 1 µM (dopaminergic D3 receptor; CHO, read-out: D3-antag. [%]): 81%; activation at 1 µM [7]: -1%
O=S(=O)(NCCCCN1CCN(c2nsc3ccccc23)CC1)c1cc2ccc(Cl)cc2s1 [Compound 241, N-[4-[4-(1,2-Benzothiazol-3-yl)piperazin-1-yl]butyl]-6-chlorobenzothiophene-2-sulphonamide]	96%	6%	82%	-2%	99%	0%	69%	50%	99%	0%	95%	42%	5%	78%	7%	-2%	83%	–
Cc1c(S(=O)(=O)NCCCN2CCC(c3noc4cc(F)ccc34)CC2)sc2ccc(F)cc12 [Compound 102, 5-Fluoro-N-[3-[4-(6-fluoro-1,2-benzoxazol-3-yl)piperidin-1-yl]propyl]-3-methylbenzothiophene-2-sulphonamide]	76%	1%	85%	-2%	99%	-1%	82%	38%	97%	0%	100%	35%	1%	83%	4%	-2%	94%	–
O=S(=O)(NCCCCN1CCC(c2noc3cc(F)ccc23)CC1)c1ccc2cc(Cl)ccc2c1 [Compound 97, 6-Chloro-N-[4-[4-(6-fluoro-1,2-benzoxazol-3-yl)piperidin-1-yl]butyl]naphthalene-2-sulphonamide]	89%	4%	95%	-3%	102%	-2%	95%	61%	93%	0%	99%	38%	13%	87%	-23%	-2%	100%	–
